The target in assay [1] is T1, PIM2 (Homo sapiens, UniProt Q9P1W9). More on the design: purchased Eurofins; method as in earlier work. The settings on record: cited from earlier work.
The target of a further assay is PIM3 (Homo sapiens, UniProt Q86V86). More on the design: purchased Eurofins DiscoverX (scanMAX) / Eurofins enzymatic assays; method as in earlier work. Conditions: cited from earlier work.
In another assay the target is MYLK/MLCK/smMLCK (Homo sapiens, UniProt Q15746). Put plainly: Eurofins kinase enzymatic radiometric assay. It counts as biochemical. More on the design: purchased Eurofins. The settings on record: Km of ATP, 9-point curve in duplicate. An excerpt:
(§1) Due to our interest in the activity of GW296115 on several understudied IDG kinases, we collected full dose–response curves for all wild type kinases inhibited ≥ 75% in the DiscoverX panel that were offered by Eurofins. Having data in orthogonal formats is a powerful way to confirm inhibitory activity and adds rigor to our results. Eurofins has kinase enzymatic radiometric assays for 35 of the kinases on this list (Table S2) and a kinase enzymatic LANCE assay for one additional kinase (MAP2K5/MEK5).
(§2) Eurofins kinase enzymatic radiometric assays were carried out at the Km of ATP in dose–response (9-pt curve in duplicate) for each kinase for which it was offered.

In another assay the target is T2, STK17B/DRAK2 (Homo sapiens, UniProt O94768).
T2 sequence (O94768 1-372): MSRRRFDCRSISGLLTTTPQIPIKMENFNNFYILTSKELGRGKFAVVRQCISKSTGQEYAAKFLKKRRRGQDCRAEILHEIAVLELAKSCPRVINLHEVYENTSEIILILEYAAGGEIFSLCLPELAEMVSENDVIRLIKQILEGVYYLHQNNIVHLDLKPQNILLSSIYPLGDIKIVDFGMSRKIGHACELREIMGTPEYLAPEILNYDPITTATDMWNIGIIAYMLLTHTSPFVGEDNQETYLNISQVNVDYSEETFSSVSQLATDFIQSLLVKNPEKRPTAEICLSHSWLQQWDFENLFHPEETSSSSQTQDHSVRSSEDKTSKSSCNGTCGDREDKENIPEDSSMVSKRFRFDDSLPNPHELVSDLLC
Put plainly: Eurofins kinase enzymatic radiometric assay. The format is biochemical. Further details: purchased Eurofins. Conditions: Km of ATP, 9-point curve in duplicate.
Excerpt: as §1, §2

The next assay has as its target NUAK1/ARK5 (Homo sapiens, UniProt O60285). Put plainly: Eurofins kinase enzymatic radiometric assay. The format is biochemical. More on the design: purchased Eurofins. The settings on record: Km of ATP, 9-point curve in duplicate.
Excerpt: as §1, §2

For another assay, the target named is DCLK3/DCAMKL3 (Homo sapiens, UniProt Q9C098). Put plainly: Eurofins kinase enzymatic radiometric assay. The settings on record: Km of ATP, 9-point curve in duplicate. It counts as biochemical. More on the design: purchased Eurofins.
Excerpt: as §1, §2

The next assay addresses MAP3K11/MLK3 (Homo sapiens, UniProt Q16584). Put plainly: Eurofins kinase enzymatic radiometric assay. The format is biochemical. Further details: purchased Eurofins. Conditions: Km of ATP, 9-point curve in duplicate.
Excerpt: as §1, §2

Another assay concerns the target SGK3 (Homo sapiens, UniProt Q96BR1). The assay can be described thus: Eurofins kinase enzymatic radiometric assay. It counts as biochemical. Further details: purchased Eurofins. Conditions: Km of ATP, 9-point curve in duplicate.
Excerpt: as §1, §2

The target of another assay is LRRK2 (Homo sapiens, UniProt Q5S007). Put plainly: Eurofins kinase enzymatic radiometric assay. It counts as biochemical. Further details: purchased Eurofins. Conditions: Km of ATP, 9-point curve in duplicate.
Excerpt: as §1, §2

The next assay addresses MAP4K4/HGK (Homo sapiens, UniProt O95819). Put plainly: Eurofins kinase enzymatic radiometric assay. Conditions: Km of ATP, 9-point curve in duplicate. Further details: purchased Eurofins. The format is biochemical.
Excerpt: as §1, §2

The next assay concerns the target AXL (Homo sapiens, UniProt P30530). The assay can be described thus: Eurofins kinase enzymatic radiometric assay. It counts as biochemical. Further details: purchased Eurofins. The settings on record: Km of ATP, 9-point curve in duplicate.
Excerpt: as §1, §2

The next assay deals with STK17A/DRAK1 (Homo sapiens, UniProt Q9UEE5). Put plainly: Eurofins kinase enzymatic radiometric assay. It counts as biochemical. More on the design: purchased Eurofins. The settings on record: Km of ATP, 9-point curve in duplicate.
Excerpt: as §1, §2

Another assay concerns the target PRKG2/PKG2 (Homo sapiens, UniProt Q13237). The assay can be described thus: Eurofins kinase enzymatic radiometric assay. It counts as biochemical. Further details: purchased Eurofins. The settings on record: Km of ATP, 9-point curve in duplicate.
Excerpt: as §1, §2

The target in a further assay is FLT3 (Homo sapiens, UniProt P36888). Put plainly: Eurofins kinase enzymatic radiometric assay. Further details: purchased Eurofins. The settings on record: Km of ATP, 9-point curve in duplicate. It counts as biochemical.
Excerpt: as §1, §2

Assay [2] addresses T1, PIM2. The assay can be described thus: Eurofins kinase enzymatic radiometric assay. The format is biochemical. Further details: purchased Eurofins. The settings on record: Km of ATP, 9-point curve in duplicate.
Excerpt: as §1, §2

In another assay the target is DAPK2 (Homo sapiens, UniProt Q9UIK4). The assay can be described thus: Eurofins kinase enzymatic radiometric assay. The format is biochemical. More on the design: purchased Eurofins. Conditions: Km of ATP, 9-point curve in duplicate.
Excerpt: as §1, §2

The target of another assay is DAPK1 (Homo sapiens, UniProt P53355). Put plainly: Eurofins kinase enzymatic radiometric assay. It counts as biochemical. More on the design: purchased Eurofins. The settings on record: Km of ATP, 9-point curve in duplicate.
Excerpt: as §1, §2

In the next assay the target is T3, BRSK1 (Homo sapiens, UniProt Q8TDC3).
T3 sequence (Q8TDC3 1-778): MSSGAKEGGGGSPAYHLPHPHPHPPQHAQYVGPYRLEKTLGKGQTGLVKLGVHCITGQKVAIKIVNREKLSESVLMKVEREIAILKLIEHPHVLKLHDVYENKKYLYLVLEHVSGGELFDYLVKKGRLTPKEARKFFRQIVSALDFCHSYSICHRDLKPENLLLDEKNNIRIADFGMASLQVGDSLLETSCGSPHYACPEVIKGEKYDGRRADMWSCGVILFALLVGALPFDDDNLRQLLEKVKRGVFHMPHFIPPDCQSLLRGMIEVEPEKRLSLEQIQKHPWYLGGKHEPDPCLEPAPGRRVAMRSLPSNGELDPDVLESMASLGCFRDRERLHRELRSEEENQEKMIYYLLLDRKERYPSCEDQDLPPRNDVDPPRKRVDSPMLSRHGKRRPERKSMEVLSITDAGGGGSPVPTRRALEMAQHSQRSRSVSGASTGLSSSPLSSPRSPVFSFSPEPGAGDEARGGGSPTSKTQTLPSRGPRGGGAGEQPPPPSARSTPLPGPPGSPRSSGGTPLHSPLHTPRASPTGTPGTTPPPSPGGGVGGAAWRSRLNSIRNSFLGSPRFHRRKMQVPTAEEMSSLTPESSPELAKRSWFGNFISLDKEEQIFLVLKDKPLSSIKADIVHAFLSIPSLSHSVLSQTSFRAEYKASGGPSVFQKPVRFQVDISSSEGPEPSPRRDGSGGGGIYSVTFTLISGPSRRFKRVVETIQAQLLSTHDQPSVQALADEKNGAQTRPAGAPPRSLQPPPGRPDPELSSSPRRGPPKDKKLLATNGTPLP
Put plainly: Eurofins kinase enzymatic radiometric assay. More on the design: purchased Eurofins. It counts as biochemical. The settings on record: Km of ATP, 9-point curve in duplicate.
Excerpt: as §1, §2

The target in the next assay is AURKC (Homo sapiens, UniProt Q9UQB9). The assay can be described thus: Eurofins kinase enzymatic radiometric assay. It counts as biochemical. Further details: purchased Eurofins. The settings on record: Km of ATP, 9-point curve in duplicate.
Excerpt: as §1, §2

Another assay addresses STK33 (Homo sapiens, UniProt Q9BYT3). Put plainly: Eurofins kinase enzymatic radiometric assay. The format is biochemical. More on the design: purchased Eurofins. The settings on record: Km of ATP, 9-point curve in duplicate.
Excerpt: as §1, §2

The next assay addresses MAP3K9/MLK1 (Homo sapiens, UniProt P80192). The assay can be described thus: Eurofins kinase enzymatic radiometric assay. More on the design: purchased Eurofins. The settings on record: Km of ATP, 9-point curve in duplicate. The format is biochemical.
Excerpt: as §1, §2

T1 sequence (Q9P1W9 whole entry): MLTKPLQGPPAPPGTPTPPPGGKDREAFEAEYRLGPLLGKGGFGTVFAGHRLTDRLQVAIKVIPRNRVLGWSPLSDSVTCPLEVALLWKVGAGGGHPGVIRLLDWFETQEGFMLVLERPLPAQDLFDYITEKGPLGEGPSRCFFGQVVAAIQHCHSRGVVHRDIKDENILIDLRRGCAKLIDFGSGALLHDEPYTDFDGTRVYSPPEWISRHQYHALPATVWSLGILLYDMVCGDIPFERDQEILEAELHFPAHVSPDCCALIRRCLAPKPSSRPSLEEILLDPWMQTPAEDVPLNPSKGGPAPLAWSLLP
AURKC, sequence (Q9UQB9 whole entry): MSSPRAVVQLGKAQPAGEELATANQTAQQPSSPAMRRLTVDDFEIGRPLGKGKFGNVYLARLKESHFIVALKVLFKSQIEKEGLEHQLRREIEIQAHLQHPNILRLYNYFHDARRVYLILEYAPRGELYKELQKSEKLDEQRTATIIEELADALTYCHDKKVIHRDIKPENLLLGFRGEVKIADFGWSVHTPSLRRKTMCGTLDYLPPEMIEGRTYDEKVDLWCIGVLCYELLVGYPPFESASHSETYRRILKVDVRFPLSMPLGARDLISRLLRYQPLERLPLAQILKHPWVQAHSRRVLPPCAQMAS
AXL, sequence (P30530 26-894): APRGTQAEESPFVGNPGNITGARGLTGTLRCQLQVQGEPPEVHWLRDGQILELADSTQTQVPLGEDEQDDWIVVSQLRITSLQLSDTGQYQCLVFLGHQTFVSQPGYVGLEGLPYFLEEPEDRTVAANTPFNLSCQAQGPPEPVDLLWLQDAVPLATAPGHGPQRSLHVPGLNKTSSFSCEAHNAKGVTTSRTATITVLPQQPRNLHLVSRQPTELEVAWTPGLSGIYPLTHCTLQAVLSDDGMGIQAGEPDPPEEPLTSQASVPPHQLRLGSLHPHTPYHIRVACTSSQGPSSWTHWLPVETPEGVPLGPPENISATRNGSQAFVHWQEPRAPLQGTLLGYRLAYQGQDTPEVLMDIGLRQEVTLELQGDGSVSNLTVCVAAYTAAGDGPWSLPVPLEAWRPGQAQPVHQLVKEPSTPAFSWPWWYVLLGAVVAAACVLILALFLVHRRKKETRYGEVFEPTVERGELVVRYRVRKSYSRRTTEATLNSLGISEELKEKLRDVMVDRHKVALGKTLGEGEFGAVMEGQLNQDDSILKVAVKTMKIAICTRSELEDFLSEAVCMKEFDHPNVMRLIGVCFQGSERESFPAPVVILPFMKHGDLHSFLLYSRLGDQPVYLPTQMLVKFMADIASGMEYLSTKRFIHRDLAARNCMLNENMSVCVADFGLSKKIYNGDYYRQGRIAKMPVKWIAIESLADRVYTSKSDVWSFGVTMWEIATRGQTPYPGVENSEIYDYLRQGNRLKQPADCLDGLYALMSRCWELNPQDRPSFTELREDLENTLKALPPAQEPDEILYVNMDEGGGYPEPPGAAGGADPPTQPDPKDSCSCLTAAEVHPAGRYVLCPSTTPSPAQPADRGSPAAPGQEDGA
MYLK/MLCK/smMLCK, sequence (Q15746 whole entry): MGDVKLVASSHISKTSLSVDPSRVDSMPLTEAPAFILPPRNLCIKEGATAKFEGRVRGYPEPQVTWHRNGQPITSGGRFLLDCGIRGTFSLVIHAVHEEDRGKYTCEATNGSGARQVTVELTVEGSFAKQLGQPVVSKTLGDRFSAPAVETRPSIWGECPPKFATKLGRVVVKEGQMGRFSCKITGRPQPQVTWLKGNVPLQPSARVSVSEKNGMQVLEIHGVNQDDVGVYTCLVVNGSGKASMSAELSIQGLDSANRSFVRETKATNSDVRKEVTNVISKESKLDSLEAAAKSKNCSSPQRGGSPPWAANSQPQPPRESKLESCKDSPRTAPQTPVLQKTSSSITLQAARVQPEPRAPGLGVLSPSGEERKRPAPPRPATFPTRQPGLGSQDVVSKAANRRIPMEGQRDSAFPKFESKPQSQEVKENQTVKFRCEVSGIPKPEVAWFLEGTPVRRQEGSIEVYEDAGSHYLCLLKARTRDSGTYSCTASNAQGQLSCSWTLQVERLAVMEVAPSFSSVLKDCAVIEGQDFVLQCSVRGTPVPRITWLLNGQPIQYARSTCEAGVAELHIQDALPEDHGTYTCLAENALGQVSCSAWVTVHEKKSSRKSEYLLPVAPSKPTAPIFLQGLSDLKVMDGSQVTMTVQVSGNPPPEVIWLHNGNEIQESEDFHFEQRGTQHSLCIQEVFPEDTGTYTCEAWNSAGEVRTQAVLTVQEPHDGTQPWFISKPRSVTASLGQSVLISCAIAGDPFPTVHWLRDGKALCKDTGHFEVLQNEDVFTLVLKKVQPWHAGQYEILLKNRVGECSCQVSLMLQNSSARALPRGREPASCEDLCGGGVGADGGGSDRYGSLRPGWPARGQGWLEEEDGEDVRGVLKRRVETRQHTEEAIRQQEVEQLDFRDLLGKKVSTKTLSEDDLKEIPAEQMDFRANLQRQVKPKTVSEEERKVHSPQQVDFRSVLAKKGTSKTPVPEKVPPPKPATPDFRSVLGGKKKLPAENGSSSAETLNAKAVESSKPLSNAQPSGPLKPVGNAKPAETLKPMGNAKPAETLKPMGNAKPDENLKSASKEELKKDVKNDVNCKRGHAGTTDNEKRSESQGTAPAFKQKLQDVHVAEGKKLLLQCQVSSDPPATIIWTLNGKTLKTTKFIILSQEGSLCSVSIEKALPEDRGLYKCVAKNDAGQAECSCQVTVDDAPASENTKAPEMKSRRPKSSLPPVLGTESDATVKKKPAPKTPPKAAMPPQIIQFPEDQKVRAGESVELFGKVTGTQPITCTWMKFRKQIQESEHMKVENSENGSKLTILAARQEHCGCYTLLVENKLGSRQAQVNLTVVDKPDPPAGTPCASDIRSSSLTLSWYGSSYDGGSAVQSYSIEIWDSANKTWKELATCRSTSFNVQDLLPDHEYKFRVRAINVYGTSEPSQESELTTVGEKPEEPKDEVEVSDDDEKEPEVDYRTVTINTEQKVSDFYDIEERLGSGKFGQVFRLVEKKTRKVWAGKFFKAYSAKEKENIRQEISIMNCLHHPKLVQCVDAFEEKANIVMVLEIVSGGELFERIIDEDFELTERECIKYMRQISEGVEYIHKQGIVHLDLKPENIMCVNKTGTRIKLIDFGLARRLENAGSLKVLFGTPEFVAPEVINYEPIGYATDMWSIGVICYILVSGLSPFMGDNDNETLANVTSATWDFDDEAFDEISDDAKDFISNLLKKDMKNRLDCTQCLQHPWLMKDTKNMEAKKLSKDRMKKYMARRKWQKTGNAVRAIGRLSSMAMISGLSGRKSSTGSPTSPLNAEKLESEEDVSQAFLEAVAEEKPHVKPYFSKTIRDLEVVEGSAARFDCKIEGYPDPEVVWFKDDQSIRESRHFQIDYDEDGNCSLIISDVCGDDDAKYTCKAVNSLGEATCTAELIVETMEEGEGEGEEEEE
SGK3, sequence (Q96BR1 whole entry): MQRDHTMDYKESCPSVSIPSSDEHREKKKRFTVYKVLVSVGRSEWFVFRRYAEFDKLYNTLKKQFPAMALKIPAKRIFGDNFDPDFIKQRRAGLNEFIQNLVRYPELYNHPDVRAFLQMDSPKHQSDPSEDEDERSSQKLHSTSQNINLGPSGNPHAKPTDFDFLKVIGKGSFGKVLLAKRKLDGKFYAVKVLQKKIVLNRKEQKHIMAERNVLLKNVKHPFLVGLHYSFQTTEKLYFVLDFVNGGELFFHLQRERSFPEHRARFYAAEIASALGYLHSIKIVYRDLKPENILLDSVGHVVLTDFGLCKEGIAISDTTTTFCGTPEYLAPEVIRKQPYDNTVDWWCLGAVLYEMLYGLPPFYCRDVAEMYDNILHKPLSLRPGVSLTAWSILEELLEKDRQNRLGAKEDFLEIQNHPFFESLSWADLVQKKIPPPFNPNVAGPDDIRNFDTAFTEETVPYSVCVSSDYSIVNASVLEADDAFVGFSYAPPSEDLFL
FLT3, sequence (P36888 27-993): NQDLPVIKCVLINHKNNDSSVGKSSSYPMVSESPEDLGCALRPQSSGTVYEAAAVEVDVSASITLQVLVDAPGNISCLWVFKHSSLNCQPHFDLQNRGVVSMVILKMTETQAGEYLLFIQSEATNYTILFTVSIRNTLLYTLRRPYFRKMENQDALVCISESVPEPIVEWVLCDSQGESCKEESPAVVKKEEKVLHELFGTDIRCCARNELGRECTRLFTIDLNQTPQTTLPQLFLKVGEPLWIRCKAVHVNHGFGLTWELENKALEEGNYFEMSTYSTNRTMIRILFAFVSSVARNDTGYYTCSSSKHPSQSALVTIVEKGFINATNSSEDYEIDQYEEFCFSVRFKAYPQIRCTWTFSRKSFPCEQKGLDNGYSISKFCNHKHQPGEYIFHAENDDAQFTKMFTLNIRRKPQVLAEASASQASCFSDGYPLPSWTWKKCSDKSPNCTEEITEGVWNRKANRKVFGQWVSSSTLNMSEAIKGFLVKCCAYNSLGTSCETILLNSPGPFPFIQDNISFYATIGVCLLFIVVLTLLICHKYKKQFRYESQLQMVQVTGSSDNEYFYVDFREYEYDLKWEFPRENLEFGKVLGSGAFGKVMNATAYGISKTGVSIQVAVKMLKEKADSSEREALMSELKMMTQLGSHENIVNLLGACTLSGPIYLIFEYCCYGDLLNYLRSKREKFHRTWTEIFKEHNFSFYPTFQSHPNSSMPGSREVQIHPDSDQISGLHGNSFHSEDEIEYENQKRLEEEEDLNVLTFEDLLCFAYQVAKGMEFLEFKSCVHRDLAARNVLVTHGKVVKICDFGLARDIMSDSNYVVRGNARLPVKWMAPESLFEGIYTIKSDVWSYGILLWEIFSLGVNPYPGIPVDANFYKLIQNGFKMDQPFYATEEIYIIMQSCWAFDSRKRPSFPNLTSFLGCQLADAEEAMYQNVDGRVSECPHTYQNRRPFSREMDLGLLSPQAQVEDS

For orientation: IC50 means the point on the concentration scale where inhibition reaches its midpoint. A low value points to greater potency. Take `COc1ccc2[nH]c3c4[nH]c5ccc(OC)cc5c4c4c(c3c2c1)C(=O)NC4=O` [GW296115]: the “TSA ΔTm at 10 μM (°C)” value at PIM2 [1] is 9.8 °C. At PIM3, the “Nanosyn % Inhibition at 1 μM” value is 83%. Moreover, the IC50 was 49 nM against MYLK/MLCK/smMLCK; 5.5 nM against STK17B/DRAK2; 15 nM on NUAK1/ARK5; 89 nM against DCLK3/DCAMKL3; 1.5 nM at MAP3K11/MLK3; greater than 10000 nM at SGK3. Moreover, the half-maximal inhibitory concentration (IC50) against LRRK2 came out at 25 nM; at MAP4K4/HGK, 29 nM; against AXL, 160 nM; against STK17A/DRAK1, 28 nM; on PRKG2/PKG2, 6.3 nM; against FLT3, 37 nM. Moreover, the IC50 against PIM2 [2] was 10 nM; at DAPK2, 21 nM; on DAPK1 it was greater than 10000 nM; at BRSK1, 21 nM; against AURKC it was 4100 nM; at STK33, 110 nM. This compound had an IC50 against MAP3K9/MLK1 of 26 nM.
